Results reported in publication PMC12771125, “Compounds Reducing Human Sperm Motility as Potential Nonhormonal Contraceptives Identified Using a High-Throughput Phenotypic Screening Platform” (ACS Omega, 2025).
Converted amounts (≈) assume the structure as drawn. Like-named read-outs stand apart in the source and are kept apart here.

Key:
human sperm = assay: Reduction of sperm motility (RSM) high-throughput phenotypic assay; assay type: cell-based; details: for EC50: Homo sapiens, reduction of progressive sperm motility relative to control
Procedure: Using our previously established phenotypic human sperm motility screening platform, we screened a large subset (62,621 compounds) of one of our in-house diversity libraries (National Phenotypic Screening Centre (NPSC) Diversity Set) (Figure A,B). Briefly, human sperm are collected, isolated from semen, distributed into 384-well plates with test compounds, time-lapse images of sperm movement are recorded using a high-content imager, and progressive motility parameters are calculated using custom data analysis software. Sperm motility is complicated, and the mechanisms underpinning its regulation are not fully understood. Progressive motility, which is a measurement of the movement of forward progression of sperm, is most closely linked to sperm quality, and the percentage of progressively motile sperm compared to control is therefore the parameter utilized during the work described in this paper. […]
We used an HTS screening platform to assess the motility of live human spermatozoa. The platform and its development are described in detail in Gruber et al. , and summarized below in brief. The platform was used to screen compound libraries specifically focusing on reduction in motility. Interesting compounds were examined in further detail as possible starting points for a medicinal chemistry program. The experimental design is illustrated in Figure .
Donors were local to the Dundee area, over the age of 18, and had no known fertility problems and normal sperm concentration, motility and semen characteristics according to WHO 2021 criteria. Special category personal data for donors, such as ethnic origin, was not recorded in accordance with ethical approval and UK GDPR. Samples were obtained by masturbation, after sexual abstinence of 2–5 days, and delivered to the research laboratory within one h of production. Samples were allowed to liquefy at 37 °C for 15–30 min prior to preparation by discontinuous density gradient centrifugation (DGC). […] A minimum of 3 prepared donor samples were routinely pooled to reduce donor-to-donor variability for primary screening assays. Pooled samples were incubated for 3 h at 37 °C under noncapacitating conditions.
In brief, screening batches of cells were transferred to a robotic platform (HighRes Biosolutions Inc.) and maintained during the screen at 37 °C at 5% CO2. Assay-ready 384-well plates containing compounds were prepared prior to the screen and filled with approximately 10,000 spermatozoa (20 μL) per well using a liquid handling system (MultiDrop Combi; ThermoFisher). These plates were incubated for 10 min prior to imaging. The HTS system utilized a Yokogawa CV7000 Cell Voyager high-throughput microscope to record time-lapse images from 2 positions in each well. An adaptation of a tracking algorithm, Trackpy v0.4.1 was utilized to track individual spermatozoa within each well and obtain kinematic parameters. Within the compound-test plates, DMSO was used as the vehicle control.
All steps were performed as previously described. , In summary, data from every compound well were normalized to those from in-plate DMSO controls (wells containing the same amount of DMSO as compound wells). Two positions were recorded in every well, and the average of those positions was used for calculating % of control (median value/DMSO median) × 100. Each plate contained 16 DMSO control wells. Median curvilinear velocity (VCL) was used as the primary readout for the NPSC Diversity Set screened at 6 μM, and percentage progressive motility (PM) was used for all other libraries screened. Hits from the primary screening were chosen based on the % change compared to the control. In these experiments, an RSM of ≥20% compared to negative controls (DMSO) was chosen as a cutoff for potential progression.
In a screening program of this scale, a significant number of compounds are likely to have a negative effect on sperm motility, but a number will show general toxicity. […]

HepG2 cells = assay: HepG2 cytotoxicity assay (resazurin, 72 h); assay type: cell-based, human; details: Homo sapiens, HepG2, 72 h; read-out: HepG2 pEC50 (converted)
Text: Our overarching aims for investigating our chemical series and deciding which ones had the potential for further progression were to achieve adequate potency in our motility assay, suitable solubility, and minimal cytotoxicity in HepG2 cells. This third point was often the most challenging, as multiple series had cytotoxicity in HepG2 cells. This observation is perhaps not surprising; many potential targets in sperm cells can also be found in somatic cells. Our cytotoxicity assay is run with an incubation time of 72 h, to give time for gross cytotoxic effects to become apparent.
Compound dilution curves were plated directly using a Labcyte Echo 550 acoustic dispenser (125 nL) in 384-well white clear-bottom plates (Greiner). HepG2 cells (ATCCHepG2 HB-8065) were cultured in minimum essential medium (supplemented with glutamax) with 10% FCS and plated (25 μL) using a WellMate dispenser ([…]) and incubated for 72 h. Doxorubicin was used as a positive control drug. Resazurin was then added to each well at a final concentration of 45 μM, and fluorescence was measured using a PHERAstar LS (BMG Labtech) after 4 h of further incubation (excitation of 528 nm and emission of 590 nm). Raw data were normalized to controls and expressed as % growth.
Figure S2: Concentration-response curves from high throughput HepG2 viability assay. Each compound was tested in duplicate and the curves of each replicate are shown. The reported values in the tables are an average of the 2 pEC50 values obtained. […]
determine 0% effect, positive control used to determine 100% effect).
Hit compounds 1a, 6b and 7a were repurchased from commercial suppliers including enamine and […]

Aqueous solubility = assay type: physicochemical
[1] = 10 min, 10 min incubation, reported <X (neg. log of top concentration) if largest reduction <70%, read-out: RSM pEC50 10 mins (converted)
[2] = 3 h incubation, reported <X if largest reduction <70%, read-out: RSM pEC50 3 hrs (converted)
[3] = 6 h incubation, reported <X if largest reduction <70%, read-out: RSM pEC50 6 hrs (converted)

| EC50 (human sperm; [1]) [µM] | EC50 (human sperm; [2]) [µM] | EC50 (human sperm; [3]) [µM] | solubility (Aqueous solubility) [µM] | SMILES | EC50 (HepG2 cells) [µM] | difference between pEC50 in the sperm motility assay and pEC50 in the HepG2 cytotoxicity assay (human sperm) |
| --- | --- | --- | --- | --- | --- | --- |
| > 31.6 | > 31.6 | > 31.6 | 4.9 (≈ 1.4 µg/mL) | COc1ccc(Nc2ccnc3cc(Cl)ccc23)cc1 [Compound 5g] | > 100 |  |
| > 31.6 | > 31.6 | > 31.6 | 3.4 (≈ 0.859 µg/mL) | O=C(Nc1nc2cc(Cl)ccc2s1)C1CC1 [Compound 4j] | > 100 |  |
| > 31.6 | > 31.6 | > 31.6 | 4.9 (≈ 1.81 µg/mL) | CCN(CC)C(=O)c1cc(Nc2ccnc3cc(Cl)ccc23)ccc1O [Compound 5d] | > 100 |  |
| > 31.6 | > 31.6 | > 31.6 | 15 (≈ 4.61 µg/mL) | Cc1cc(C)nc(-n2nc(C)cc2NC(=O)c2ccccc2)n1 [Compound 6d] | > 100 |  |
| > 31.6 | > 31.6 | > 31.6 | 220 (≈ 67 µg/mL) | O=C(Nc1nc(-c2ccccn2)cs1)NC1CCOCC1 [Compound 3i] | > 100 |  |
| > 31.6 | > 31.6 | 0.316 | 3.5 (≈ 0.948 µg/mL) | Oc1ccc(Nc2ccnc3cc(Cl)ccc23)cc1 [Compound 5e] | 79.4 |  |
| > 20 |  |  | 100 (≈ 27.4 µg/mL) | N#Cc1ccc(NC(=O)c2cc(Cl)ccc2O)cn1 [Compound 1h] | 20 |  |
| > 20 |  |  | 0.64 (≈ 0.216 µg/mL) | O=C(Nc1ccc(OCc2ccccc2)cc1)c1ccccc1Cl [Compound 1k] | > 100 |  |
| 12.6 | 5.01 | 3.98 | 200 (≈ 52.2 µg/mL) | CC(=O)Nc1nc2c(Cl)c(Cl)ccc2s1 [Compound 4a, N-(4,5-Dichlorobenzo[d]thiazol-2-yl)acetamide] | 50.1 | ~1 log units |
| > 31.6 | > 31.6 | 1.58 | 1.1 (≈ 0.323 µg/mL) | Cc1ccc(Nc2cc(C)nn2-c2nc(C)cc(C)n2)cc1 [Compound 6b, 1-(4,6-Dimethylpyrimidin-2-yl)-3-methyl-N-(p-tolyl)-1H-pyrazol-5-amine] | > 100 |  |
| 5.01 |  |  | 11 (≈ 3 µg/mL) | N#Cc1ccc(NC(=O)c2cc(Cl)ccc2O)cc1 [Compound 1g] | 2.51 |  |
| 3.98 |  |  | 60 (≈ 17.2 µg/mL) | Cc1cc(NC(=O)c2cc(Cl)ccc2O)ccc1C#N [Compound 1c] | 25.1 |  |
| > 31.6 | > 31.6 | > 31.6 | 240 (≈ 66.6 µg/mL) | Cc1cc(NC(=O)c2ccccc2)n(-c2ccccc2)n1 [Compound 6e] | > 100 |  |
| > 31.6 | > 31.6 | > 31.6 | 100 (≈ 31.6 µg/mL) | O=C(Nc1nc(-c2ccccn2)cs1)c1ccccc1Cl [Compound 3c] | > 100 |  |
| 10 | 3.98 | 3.98 | 12 (≈ 3.45 µg/mL) | O=C(Nc1nc2c(Cl)c(Cl)ccc2s1)C1CC1 [Compound 4d] | 50.1 |  |
| 10 | 6.31 | 5.01 | 18 (≈ 5.21 µg/mL) | CC(C)C(=O)Nc1nc2c(Cl)c(Cl)ccc2s1 [Compound 4c] | 50.1 |  |
| > 31.6 | > 31.6 | > 31.6 | 220 (≈ 61.9 µg/mL) | c1ccc2c(N3CCCCC3)cc(N3CCCC3)nc2c1 [Compound 7f] | 50.1 |  |
| > 31.6 | 6.31 | 6.31 | 4.5 (≈ 1.36 µg/mL) | CC(C)CC(=O)Nc1nc2c(Cl)c(Cl)ccc2s1 [Compound 4e] | > 100 |  |
| > 31.6 | 15.8 | 2 | 0.38 (≈ 0.132 µg/mL) | Cc1sc(NC(=O)Nc2ccc(F)cc2F)nc1-c1ccccn1 [Compound 3m] | 12.6 | less than 1 log units |

| SMILES | EC50 (human sperm; [1]) [µM] | EC50 (human sperm; [2]) [µM] | EC50 (human sperm; [3]) [µM] | solubility (Aqueous solubility) [µM] | EC50 (HepG2 cells) [µM] | difference between pEC50 in the sperm motility assay and pEC50 in the HepG2 cytotoxicity assay (human sperm) |
| --- | --- | --- | --- | --- | --- | --- |
| N#Cc1ccc(NC(=O)c2cc(Cl)ccc2O)cc1Cl [Compound 1e] | 2.51 |  |  | 2.3 (≈ 0.706 µg/mL) | 5.01 |  |
